{"source": "patent US20170218375A1", "about": "“MORPHOLINOS, MORPHOLINO UPREGULATING, AND ASSOCIATED METHODS” (University of Utah Research Foundation, priority 2011, published 2017)", "key": {"[1]": {"system": "mbVEGFR2 mRNA", "experiment": "RT-PCR of mbVEGFR2 mRNA in mouse MS-1 cell line", "assay_type": "cell-based", "text": "Because VEGFR2_MOe13 decreases mbVEGFR2 and increases sVEGFR2, it is expected that VEGFR2_MOe13 can inhibit angiogenesis and lymphangiogenesis in vivo. To study the effect of VEGFR2_MOe13 in animal models, moVEGFR2_MOe13 was created that targets the exon13-intron13 junction of the mouse VEGFR2 gene. By RT-PCR analysis, it was found moVEGFR2_MOe13 increased sVEGFR2 mRNA and decreased mbVEGFR2 mRNA in the mouse MS-1 cell line (FIG. 7A). […] FIGS. 7(f, g) show the mean area of corneal neovascularization and lymphangiogenesis respectively (n=13-16). Risk factors (p-value) were calculated by two-tail student's t-test (*: p<0.05, **p<0.01, ***p<0.001). Error bar is ±s.e.m.\nEach morpholino oligomer was purchased from Gene Tools (Philomath, Oreg.). The sequences of each morpholino oligomer and primers for PCR are listed in supplemental Table. […] The cells were washed three times and fluorescence was detected by a FACScan Analyzer (BD Biosciences, San Jose, Calif.). […]\ncDNAs were synthesized from 400 ng total RNA using Omniscript RT kit (Qiagen, Valencia, Calif.) and Oligo-dT primer(dT20) according to the manufacturer's instructions. Real-time PCR was performed using QuantiTect SYBR Green PCR Kit (Qiagen, Valencia, Calif.) and 1 μl of cDNA. […]"}, "[2]": {"system": "sVEGFR2/mbVEGFR2 mRNA", "experiment": "Real-time PCR of mouse retinal total RNA after intravitreous injection", "assay_type": "in vivo", "conditions": "2 μl of 100 ng/μl intravitreously on day 0 and day 3, retina on day 4, vivo-morpholino", "text": "To administer morpholinos in vivo, morpholino conjugated with a dendrimer at the 3′ position (vivo-morpholino) was used for animal experiments. It should be understood that this technique is merely exemplary, and any other method of administration is considered to be within the present scope. […] Next, the protein level of mbVEGFR2 and sVEGFR2 in the retina and the ocular solution was examined by western blot. Consistent with real-time PCR results, moVEGFR2_MOe13 decreased mbVEGFR2 protein in the retina (FIG. 7C) and increased sVEGFR2 protein in the ocular solution (FIG. 7D).\nTo examine whether moVEGFR2_MOe13 could work in the mouse eye, on day 0 and day 3 2 μl of 100 ng/μl moVEGFR2_MOe13 or STD_MO or DPBS were injected intravitreously. On day 4, retinal total RNA was extracted with RNeasy mini kit with DNaseI treatment. sVEGFR2 and mbVEGFR2 mRNA expression were determined by the method described above. For western blot of mbVEGFR2, on day 4, retina was dissolved in RIPA buffer. For western blot of sVEGFR2, on 4 day, intraocular solution was obtained from 6 eyes by pipette. After centrifuge, supernatant was used for further experiment. For western blot, biotin-conjugated anti-VEGFR2 (BAF644, R&D Systems, Minneapolis, Minn.) was used at 1 μg/μl."}, "[3]": {"system": "corneal transplant rejection", "experiment": "Mouse corneal transplantation model", "assay_type": "in vivo", "method": "It was also examined whether moVEGFR2_MOe13 can suppress murine corneal transplant rejection. After cornea transplantation, moVEGFR2_MOe13, STD_MO or DPBS were injected subconjuctivally. […] The arrow indicates censored data. […] Scale bar is 1 mm. FIGS. 12(c, d) Show the mean area of corneal neovascularization and lymphangiogenesis at 8 weeks respectively (n=11-17). Risk factors (p-value) were calculated by two-tail student's t-test (*: p<0.05, **p<0.01). Error bar is ±s.e.m.\nMouse corneal transplantation has been described previously. The donor cornea was marked with 2 mm trephine, the anterior chamber was penetrated using a knife (ClearCut™ Alcon, Inc) and the cornea was cut with Vannas scissors and then placed in Balanced Salt Solution (BSS® Alcon Laboratories, Inc, Fort Worth). The recipient mouse was anesthetized by intramuscular injection with ketamine (100 mg/kg body weight) and xylazine (20 mg/kg body weight). To dilate pupil and anesthetize the cornea, 1% tropicamide ophthalmic solution and 0.5% proparacaine ophthalmic solution were used. The recipient's right cornea was marked with 1.5 mm trephine and removed by the same method as the donor cornea. Viscoelastic material (Healon, 1% sodium hyaluronate, Abbott Medical Optics, IL) was used during recipient cornea dissection. […]"}}, "note": "{Dendrimer} = dendrimer conjugate (vivo-morpholino)"}
{"substance": "5′-cacccagggatgcctccatacCTAG-3′ (antisense CACCCAGGGATGCCTCCATACCTAG; all phosphorodiamidate morpholino (PMO), 3' {Dendrimer}) [moVEGFR2_MOe13, morpholino that targets the exon13-intron13 junction of the mouse VEGFR2 gene; in vivo conjugated with a dendrimer (vivo-morpholino)]", "values": [{"measurement": "mbVEGFR2 mRNA by RT-PCR", "setting": "[1]", "result": "decreased"}, {"measurement": "sVEGFR2/mbVEGFR2 mRNA ratio in retina", "setting": "[2]", "result": "significantly increased"}, {"measurement": "corneal neovascularization and lymphangiogenesis at 8 weeks", "setting": "[3]; mean area, CD31 and LYVE-1 stained cornea at the endpoint (8 weeks), FIGS. 12C, D", "result": "decreased"}, {"measurement": "graft survival", "setting": "[3]; mouse cornea transplantation, 15 ul of 40 ng/μl subconjunctivally day of transplantation and weeks 1-4, compared with DPBS and STD_MO (log rank p=0.0186 and 0.0610)", "result": "increased"}]}
